Data on 22 molecules can be found in US20240294542A1, “NLRP3 INFLAMMASOME INHIBITOR AND APPLICATION THEREOF” (TransThera Sciences (Nanjing), Inc., priority 2021, published 2024).

Usually IC50 stands for the concentration at which inhibition is half-maximal.

The experiment concerns NLRP3 inflammasomes. Nature of the experiment: Inhibitory activity against NLRP3 inflammasome in THP-1 cells (LPS/nigericin stimulation, IL-1β ELISA). In kind it is cell-based. To be noted: PMA-differentiated THP-1 cells; LPS 500 ng/mL 3 h, compound 1 h, nigericin 10 μg/mL 30 min; human IL-1β in supernatant by Elisa; read-out: IC50 (nM), inhibitory activities against NLRP3 in THP-1 cells. How it is done: Test Samples: The compounds of the present invention prepared according to exemplary methods.
THP-1 is Immortalized Human Macrophage Cell Line
• Test instrument: microplate reader (made from PE)
• 1. […] Culture plate coating: 100 μL polylysine solution was added into a 96-well cell culture plate, and the reaction was carried out at 37° C. for 30 min. The solution was discarded, and PBS was washed twice for later use. • 3. […] The resulting mixture was uniformly mixed, and finally diluted by 1:1000 times, and the cells were placed in a carbon dioxide cell incubator at 37° C. and cultured for 1 h. • c. Nigericin was added to each well at a final concentration of 10 μg/mL, and the plate was placed in a carbon dioxide cell incubator at 37° C. and cultured for 30 min. • d. The media in wells were transferred to a new culture plate, and then the plate was centrifuged at 3000 rpm for 5 min. Then the supernatant was transferred to a new 96-well plate. • e. The collected cell culture supernatant samples were tested for the content of human IL-1β by using a commercial Elisa kit, as specified in the instructions.
For `Cc1ccc(-c2nnc(N[C@@H]3CCCN(C)C3)c3c2C2CCC3CC2)c(O)c1` [Compound 6a, (R)-5-methyl-2-(4-((1-methylpiperidin-3-yl)amino)-5,6,7,8-tetrahydro-5,8-ethanophthalazin-1-yl)phenol], the half-maximal inhibitory concentration (IC50) came out at 1 nM.

Consider `Cc1ccc(-c2nnc(N[C@@H]3CCCN(C)C3)c3cc(C#N)ccc23)c(O)c1` [Compound 20, (R)-1-(2-hydroxy-4-methylphenyl)-4-((1-methylpiperidin-3-yl)amino)phthalazine-6-carbonitrile], for which the IC50 stood at 12 nM.

For `Cc1ccc(-c2nnc(N[C@@H]3CCCN(C)C3)c3c2CCCCC3)c(O)c1` [Compound 26a, (R)-5-methyl-2-(4-((1-methylpiperidin-3-yl)amino)-6,7,8,9-tetrahydro-5H-cyclohepta[d]pyridazin-1-yl)phenol], the IC50 was determined as 4 nM.

Consider `CN1CCC[C@@H](Nc2nnc(-c3ccc(F)cc3O)c3c2CCCC3)C1` [Compound 24a, (R)-5-fluoro-2-(4-((1-methylpiperidin-3-yl)amino)-5,6,7,8-tetrahydrophthalazin-1-yl)phenol], for which the concentration for half-maximal inhibition (IC50) was 1 nM.

On to `Cc1ccc(-c2nnc(N[C@@H]3CCCN(C)C3)c3cc(C)ccc23)c(O)c1` [Compound 4, (R)-5-methyl-2-(6-methyl-4-((1-methylpiperidin-3-yl)amino)phthalazin-1-yl)phenol], for which the IC50 is 9 nM.

Regarding `Cc1ccc(-c2nnc(N[C@@H]3CCCN(C)C3)c3c2CCCC3)c(O)c1F` [Compound 29a, (R)-2-fluoro-3-methyl-6-(4-((1-methylpiperidin-3-yl)amino)-5,6,7,8-tetrahydrophthalazin-1-yl)phenol], the IC50 was determined as 1 nM.

`Cc1ccc(-c2nnc(N[C@@H]3CCCN(C)C3)c3cc(F)ccc23)c(O)c1` [Compound 8, (R)-2-(6-fluoro-4-((1-methylpiperidin-3-yl)amino)phthalazin-1-yl)-5-methylphenol]: the IC50 was 3 nM.

In the case of `COc1ccc(-c2nnc(N[C@@H]3CCCN(C)C3)c3c2CCCC3)c(O)c1` [Compound 23a, (R)-5-methoxy-2-(4-((1-methylpiperidin-3-yl)amino)-5,6,7,8-tetrahydrophthalazin-1-yl)phenol], the IC50 stood at 6 nM.

With `CN1CCC[C@@H](Nc2nnc(-c3ccc(Cl)cc3O)c3ccccc23)C1` [Compound 101, (R)-5-chloro-2-(4-((1-methylpiperidin-3-yl)amino)phthalazin-1-yl)phenol], the IC50 is 5 nM.

As for `CN1CCC[C@@H](Nc2nnc(-c3ccc(C4CC4)cc3O)c3ccccc23)C1` [Compound 72, (R)-5-cyclopropyl-2-(4-((1-methylpiperidin-3-yl)amino)phthalazin-1-yl)phenol], the IC50 came out at 1 nM.

On to `Cc1ccc2c(-c3ccc(C#N)cc3O)nnc(N[C@@H]3CCCN(C)C3)c2c1` [Compound 55, (R)-3-hydroxy-4-(6-methyl-4-((1-methylpiperidin-3-yl)amino)phthalazin-1-yl)benzonitrile], for which the half-inhibitory concentration (IC50) worked out at 4 nM.

In the case of `CN1CCC[C@@H](Nc2nnc(-c3ccc(C#N)cc3O)c3c2CCCC3)C1` [Compound 2a, (R)-3-hydroxy-4-(4-((1-methylpiperidin-3-yl)amino)-5,6,7,8-tetrahydrophthalazin-1-yl)benzonitrile], the half-inhibitory concentration (IC50) turned out to be 3 nM.

As to `Cc1ccc(-c2nnc(N[C@@H]3CCCN(C)C3)c3c(F)cccc23)c(O)c1` [Compound 9, (R)-2-(5-fluoro-4-((1-methylpiperidin-3-yl)amino)phthalazin-1-yl)-5-methylphenol], the IC50 is 3 nM.

As for `N#Cc1ccc(-c2nnc(N[C@@H]3CCCN(C4CC4)C3)c3c2CCCC3)c(O)c1` [Compound 21a, (R)-4-(4-((1-cyclopropylpiperidin-3-yl)amino)-5,6,7,8-tetrahydrophthalazin-1-yl)-3-hydroxybenzonitrile], the concentration for half-maximal inhibition (IC50) came to 14 nM.

Consider `CN1CCC[C@@H](Nc2nnc(-c3ccc(C4CC4)cc3O)c3ccc(C#N)cc23)C1` [Compound 89, (R)-1-(4-cyclopropyl-2-hydroxyphenyl)-4-((1-methylpiperidin-3-yl)amino)phthalazine-6-carbonitrile], for which the IC50 is 7 nM.

Consider `COc1ccc2c(-c3ccc(C)cc3O)nnc(N[C@@H]3CCCN(C)C3)c2c1` [Compound 16, (R)-2-(6-methoxy-4-((1-methylpiperidin-3-yl)amino)phthalazin-1-yl)-5-methylphenol], for which the half-maximal inhibitory concentration (IC50) is 7 nM.

As to `Cc1ccc(-c2nnc(N[C@@H]3CCCN(C)C3)c3cc(Br)ccc23)c(O)c1` [Compound 60, (R)-2-(6-bromo-4-((1-methylpiperidin-3-yl)amino)phthalazin-1-yl)-5-methylphenol], the concentration for half-maximal inhibition (IC50) was 13 nM.

As to `Cc1ccc(-c2nnc(N[C@@H]3CCCN(C)C3)c3c(Br)cccc23)c(O)c1` [Compound 34, (R)-2-(5-bromo-4-((1-methylpiperidin-3-yl)amino)phthalazin-1-yl)-5-methylphenol], the half-inhibitory concentration (IC50) is 8 nM.

For the molecule `Cc1ccc(-c2nnc(N[C@@H]3CCCN(C)C3)c3ncccc23)c(O)c1` [Compound 38, (R)-5-methyl-2-(8-((1-methylpiperidin-3-yl)amino)pyrido[2,3-d]pyridazin-5-yl)phenol], the IC50 was 12 nM.

Regarding `Cc1ccc(-c2nnc(N[C@@H]3CCCN(C)C3)c3ccccc23)c(O)c1` [Compound 1, (R)-5-methyl-2-(4-((1-methylpiperidin-3-yl)amino)phthalazin-1-yl)phenol], the IC50 was determined as 1.8 nM.

As for `Cc1ccc(-c2nnc(N[C@@H]3CCCN(C)C3)c3ccsc23)c(O)c1` [Compound 48, (R)-5-methyl-2-(4-((1-methylpiperidin-3-yl)amino)thieno[2,3-d]pyridazin-7-yl)phenol], the IC50 came out at 2 nM.

`Cc1ccc(-c2nnc(N[C@@H]3CCCN(C)C3)c3c2CCCC3)c(O)c1` [Compound 1a, (R)-5-methyl-2-(4-((1-methylpiperidin-3-yl)amino)-5,6,7,8-tetrahydrophthalazin-1-yl)phenol]: the IC50 came out at 7 nM.
